Assay results taken from US6004967A, “Psoriasis treatment with quinazoline compounds” (priority 1997, dated 1999).

Key:
[1] = tested on: psoriatic human keratinocytes; test: Growth of psoriatic human keratinocytes; format: cell-based
Source text: Cells and Cell Culture. All tumor cell lines were obtained from the American Type Culture Collection (Rockville, Md.), unless otherwise specified. NIH3T3 mouse fibroblasts overexpressing the EGF receptor, IGF-1 receptor, insulin receptor, PDGF-b receptor, or a chimera of the EGF receptor extracellular domain fused to the Her-2 cytoplasmic domain were engineered using retroviral vectors. These cells will be referred to as 3T3-EGFR, 3T3-IGF1R, 3T3-IR, 3T3-PDGF-bR, and 3T3-EGFR/Her-2, respectively. All cell culture media and supplements were purchased from Gibco Life Technologies (Grand Island, N.Y.) unless otherwise specified. […] Cell lines were maintained under standard conditions in culture media recommended by the ATCC, unless otherwise specified. 3T3-EGFR, 3T3-PDGF-bR, and 3T3-EGFR/Her-2 cells were maintained in DMEM containing 10% calf serum (CS) and 2 mM GLN. 3T3-IGF1R and 3T3-IR cells were maintained in DMEM containing 10% FBS and 2 mM GLN. Keratinocytes were obtained from small biopsy specimens of split-thicknessskin from patients with psoriasis and from healthy control donors.
(§1) In vitro functional studies. […] Cell lines examined in receptor phosphorylation ELISA were 3T3-EGFR, 3T3-EGFR/Her-2, 3T3-PDGF-bR, 3T3-IGF1R, and 3T3-IR. For analysis of DNA replication (measured as incorporation of BrdU) and cell cycle progression, 3T3-EGFR and 3T3-PDGF-bR cell lines were used. Cell growth studies were carried out on A431 (EGF-R+), BT474 (Her-2+), and C6 (PDGF-bR+) cell lines.

in vivo = settings: mouse, in vivo
BT474 = test: Cell growth (SRB), BT474; format: cell-based; settings: Homo sapiens, BT-474, 96 h; RTK Her-2, 4 day incubation
Protocol: In vitro functional studies.
After 4 days, cell density was measured by SRB staining. IC50 values were determined by regression analysis. For these experiments, cell lines whose growth is dependent on naturally-expressed RTK were examined.

[2] = Solubility of A1 in pure solvents
3T3-EGFR cells = test: EGF-driven cell cycle progression (propidium iodide, FACS); format: cell-based, mouse; settings: 20 hours
Protocol: as §1

COc1cc2ncnc(Nc3cccc(Br)c3)c2cc1OC [A1, 4-(3-Bromophenylamino)-6,7-dimethoxyquinazoline]
inhibition of psoriatic skin cell / keratinocyte proliferation in vitro (in words) [1]: capable of inhibiting | IC99 ([1]; Homo sapiens, Keratinocyte, 120 h, read-out: IC99, inhibition of psoriatic keratinocyte proliferation): ~14 µM | IC50 ([1]; Homo sapiens, Keratinocyte, read-out: IC50, growth of psoriatic keratinocytes): < 1 µM | toxicity (in words) (in vivo): low toxicity | IC50 (BT474): 0.9 µM | Not Soluble at ([2]; Benzyl Alcohol, NF): 4.77 % w/w | Soluble at ([2]; Benzyl Alcohol, NF): 3.60 % w/w | Not Soluble at ([2]; Benzyl Benzoate, USP (printed Betizyl Berizoate)): 0.85 % w/w | Not Soluble at ([2]; Caprylic/Capric Triglyceride (Miglyol 812)): 0.84 % w/w | Not Soluble at ([2]; Dehydrated Alcohol, USP): 0.98 % w/w | Soluble at ([2]; Dehydrated Alcohol, USP): 0.76 % w/w | compatibility / solubility ([2]; Diethyl Sebacate): not compatible (yellow) | Not Soluble at ([2]; Diisopropyl Adipate): 0.66 % w/w | Not Soluble at ([2]; Dimethyl isosorbide): 0.97 % w/w | Not Soluble at ([2]; Ethoxydiglycol (Transcutol)): 3.74 % w/w | Soluble at ([2]; Ethoxydiglycol (Transcutol)): 2.41 % w/w | Not Soluble at ([2]; Finsolve TN (Finetex)): 1.27 % w/w | Not Soluble at ([2]; Hexylene Glycol): 2.05 % w/w | Soluble at ([2]; Hexylene Glycol): 0.98 % w/w | Not Soluble at ([2]; Isopropyl Alcohol, 99%): 1.25 % w/w | Not Soluble at ([2]; Isotearyl Alcohol): 0.99 % w/w | Soluble at ([2]; Laureth 4): 4.10 % w/w | Not Soluble at ([2]; Octyldodecanol, NF): 0.68 % w/w | Not Soluble at ([2]; Oleic Acid, NF): 1.00 % w/w | Not Soluble at ([2]; Polyethylene Glycol 300, USP): 2.10 % w/w | Soluble at ([2]; Polyethylene Glycol 300, USP): 1.00 % w/w | Not Soluble at ([2]; Polyethylene Glycol 400, USP): 2.44 % w/w | Soluble at ([2]; Polyethylene Glycol 400, USP): 1.76 % w/w | Not Soluble at ([2]; Polysorbate 20, NF): 0.99 % w/w | Not Soluble at ([2]; Propylene Carbonate, NF): 1.46 % w/w | Soluble at ([2]; Propylene Carbonate, NF): 0.98 % w/w | Not Soluble at ([2]; Propylene Glycol, USP): 0.59 % w/w | Not Soluble at ([2]; Triacetin USP): 0.96 % w/w | solubility in nonirritant solvents (in words) ([2]; among anticancer compounds): relative high solubility in nonirritant solvents | IC50 (3T3-EGFR cells): 0.034 µM
